Measured values reported in ChEMBL document CHEMBL6103672, “Discovery of HMPL-306 (Ranosidenib), a New Potent and Selective Dual Inhibitor of Mutant IDH1 and 2 in Clinical Development for Cancer Treatment” (ACS Med Chem Lett, 2025).

Tests used:
[1] = AUC(0 to t) in male ICR mouse at 10 mg/kg, po measured upto 24 hrs by LC/MS/MS analysis; assay type: ADME, organism-based; settings: in vivo
[2] = Cmax in male ICR mouse at 10 mg/kg, po measured after 8 hrs by LC/MS/MS analysis; assay type: ADME, organism-based; settings: in vivo
[3] = Half life in male ICR mouse at 10 mg/kg, po measured after 8 hrs by LC/MS/MS analysis; assay type: ADME, organism-based; settings: in vivo
[4] = Inhibition of IDH1 R132H mutant in human TF-1 cells incubated for 72 hrs by measuring 2-HG production by fluorescence based analysis; assay type: functional, cell-based; settings: TF-1, 72 h
[5] = AUC(0 to infinity) in male ICR mouse at 10 mg/kg, po measured after 8 hrs by LC/MS/MS analysis; assay type: ADME, organism-based; settings: in vivo
[6] = Inhibition of IDH1 R132H mutant in human U-87 MG cells incubated for 72 hrs by measuring 2-HG production by fluorescence based analysis; assay type: functional, cell-based, U-87MG ATCC; settings: Homo sapiens, U-87 MG, 72 h
[7] = In vivo inhibition of 2-HG in BALB/c nude mouse xenografted with human HT-1080 cells harboring IDH1 R132C mutant at 50 mg/kg, po measured after 40 hrs post dose; assay type: functional
[8] = Oral bioavailability in male ICR mouse at 10 mg/kg measured after 8 hrs by LC/MS/MS analysis; assay type: ADME, organism-based; settings: in vivo
[9] = Volume of distribution at steady state in male ICR mouse at 2.5 mg/kg, iv measured after 8 hrs by LC/MS/MS analysis; assay type: ADME, organism-based; settings: in vivo, read-out: Vdss
[10] = Clearance in male ICR mouse at 2.5 mg/kg, iv measured after 8 hrs by LC/MS/MS analysis; assay type: ADME, organism-based; settings: in vivo
[11] = In vivo inhibition of 2-HG in BALB/c nude mouse xenografted with human HT-1080 cells harboring IDH1 R132C mutant at 50 mg/kg, po measured after 24 hrs post dose; assay type: functional
[12] = Inhibition of IDH1 R132C mutant in human HT-1080 cells incubated for 72 hrs by measuring 2-HG production by fluorescence based analysis; assay type: functional, cell-based; settings: HT-1080, 72 h
[13] = In vivo inhibition of 2-HG in BALB/c nude mouse xenografted with human U-87 MG cells harboring IDH2 R140Q mutant at 25 mg/kg, po measured after 24 hrs post dose; assay type: functional
[14] = In vivo inhibition of 2-HG in BALB/c nude mouse xenografted with human U-87 MG cells harboring IDH2 R140Q mutant at 25 mg/kg, po measured after 40 hrs post dose; assay type: functional
[15] = Inhibition of IDH2 R172K mutant in human HEK293 cells incubated for 72 hrs by measuring 2-HG production by fluorescence based analysis; assay type: functional, cell-based; settings: HEK293, 72 h
[16] = Inhibition of IDH2 R140Q mutant in human U-87 MG cells incubated for 72 hrs by measuring 2-HG production by fluorescence based analysis; assay type: functional, cell-based, U-87MG ATCC; settings: Homo sapiens, U-87 MG, 72 h
UGT1A1 = target: T1, UGT1A1 (Homo sapiens, UniProt P22309); experiment: Inhibition of UGT1A1 (unknown origin) at 10 uM relative to control; assay type: ADME
T1 sequence (P22309 whole entry): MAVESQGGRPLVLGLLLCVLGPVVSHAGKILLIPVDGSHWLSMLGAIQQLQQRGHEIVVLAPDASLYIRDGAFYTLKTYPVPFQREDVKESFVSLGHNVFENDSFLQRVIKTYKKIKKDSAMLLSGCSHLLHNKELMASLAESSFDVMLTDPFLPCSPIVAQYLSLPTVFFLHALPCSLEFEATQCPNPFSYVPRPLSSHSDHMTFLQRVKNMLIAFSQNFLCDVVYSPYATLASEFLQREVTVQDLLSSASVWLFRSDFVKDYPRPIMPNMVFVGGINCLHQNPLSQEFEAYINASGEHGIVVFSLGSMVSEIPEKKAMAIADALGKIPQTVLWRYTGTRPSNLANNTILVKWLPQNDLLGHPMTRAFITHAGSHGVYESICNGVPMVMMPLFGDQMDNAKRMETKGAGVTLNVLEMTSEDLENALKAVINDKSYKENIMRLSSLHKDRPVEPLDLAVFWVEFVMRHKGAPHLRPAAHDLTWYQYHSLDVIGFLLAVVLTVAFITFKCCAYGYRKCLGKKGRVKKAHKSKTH

[17] = target: Isocitrate dehydrogenase [NADP], mitochondrial (Homo sapiens, UniProt P48735, R140Q); experiment: Inhibition of IDH2 R140Q mutant (unknown origin) using alpha-ketoglutarate as substrate preincubated with compound for 16 hrs followed by substrate addition and measured after 1 hr in presence of NADPH by fluorescence based analysis
Sequence of Isocitrate dehydrogenase [NADP], mitochondrial (P48735 40-452 R140Q limits assumed): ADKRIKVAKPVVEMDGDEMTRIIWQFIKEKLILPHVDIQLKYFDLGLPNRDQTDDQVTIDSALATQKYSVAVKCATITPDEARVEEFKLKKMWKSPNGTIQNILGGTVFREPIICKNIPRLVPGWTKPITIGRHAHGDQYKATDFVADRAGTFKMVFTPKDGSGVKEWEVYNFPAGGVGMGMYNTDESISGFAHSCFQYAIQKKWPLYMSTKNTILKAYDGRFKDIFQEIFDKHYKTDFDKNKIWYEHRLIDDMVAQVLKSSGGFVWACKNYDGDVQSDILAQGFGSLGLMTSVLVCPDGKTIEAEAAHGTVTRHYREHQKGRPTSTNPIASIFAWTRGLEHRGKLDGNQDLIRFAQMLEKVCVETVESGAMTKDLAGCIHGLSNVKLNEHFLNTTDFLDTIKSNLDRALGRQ

[18] = Inhibition of IDH2 R140Q mutant in human TF-1 cells incubated for 72 hrs by measuring 2-HG production by fluorescence based analysis; assay type: functional, cell-based; settings: TF-1, 72 h
Adenosine receptor A3 = target: T2, Adenosine receptor A3 (Homo sapiens, UniProt P0DMS8); experiment: Inhibition of adenosine A3 receptor (unknown origin); assay type: toxicity
T2 sequence (P0DMS8 whole entry): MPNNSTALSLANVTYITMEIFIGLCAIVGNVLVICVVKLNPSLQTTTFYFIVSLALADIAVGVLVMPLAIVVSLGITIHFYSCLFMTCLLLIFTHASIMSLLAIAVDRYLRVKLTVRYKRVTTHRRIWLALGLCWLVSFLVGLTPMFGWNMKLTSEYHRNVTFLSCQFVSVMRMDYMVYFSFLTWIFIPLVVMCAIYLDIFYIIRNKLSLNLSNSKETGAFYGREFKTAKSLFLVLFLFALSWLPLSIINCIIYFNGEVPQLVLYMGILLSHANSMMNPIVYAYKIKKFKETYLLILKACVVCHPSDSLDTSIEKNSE

[19] = Metabolic stability in male SD rat liver microsomes assessed as parent compound remaining at 1 uM measured after 30 mins in presence of NADPH by LC-MS analysis; assay type: ADME, Microsome; settings: Sprague-Dawley, read-out: Stability
[20] = Metabolic stability in male ICR mouse liver microsomes assessed as parent compound remaining at 1 uM measured after 30 mins in presence of NADPH by LC-MS analysis; assay type: ADME, Microsome; settings: read-out: Stability
[21] = AUC(0 to t) in male ICR mouse at 10 mg/kg, po measured after 8 hrs by LC/MS/MS analysis; assay type: ADME, organism-based; settings: in vivo
[22] = Apparent permeability across apical to basolateral side in human Caco-2 cells at 10 uM incubated for 1 hrs by LC-MS/MS analysis
[23] = Apparent permeability across basolateral to apical side in human Caco-2 cells at 10 uM incubated for 1 hrs by LC-MS/MS analysis
[24] = Ratio of drug concentration in brain to plasma of BALB/c nude mouse xenografted with human U-87 MG cells harboring IDH2 R140Q mutant at 50 mg/kg measured after 24 hrs by LC/MS/MS analysis; assay type: ADME, organism-based; settings: read-out: BPR
[25] = Ratio of drug concentration in brain to plasma of BALB/c nude mouse xenografted with human U-87 MG cells harboring IDH2 R140Q mutant at 50 mg/kg measured after 16 hrs by LC/MS/MS analysis; assay type: ADME, organism-based; settings: read-out: BPR

Row | SMILES | AUC(0-t) at 24 h [1] [ng·h/mL] | Cmax [2] [ng/mL] | half-life [3] [h] | AUC(0-inf) [5] [ng·h/mL] | IC50 [6] [nM] | bioavailability [8] [%] | Vd [9] [L/kg] | clearance [10] [mL/min/kg] | IC50 [16] [nM] | other results
1 | N#Cc1ccnc(N2C(=O)CC[C@H]2C(=O)N(c2cncc(F)c2)[C@H](C(=O)NC2CC(F)(F)C2)c2ccccc2Cl)c1 [IVOSIDENIB] | 7090 | 1270 | 2.6 | 7100 | 32 | 64.5 | 1.94 | 15.2 |  | IC50 [4]: 68 nM; inhibition in vivo at 50 mg/kg [7]: 50%; inhibition in vivo at 50 mg/kg [11]: 78%; IC50 [12]: 9 nM
2 | CC(C)(O)CNc1nc(Nc2ccnc(C(F)(F)F)c2)nc(-c2cccc(C(F)(F)F)n2)n1 [ENASIDENIB] | 22900 | 1870 | 3.3 | 23000 |  | 95.1 | 1.72 | 6.9 | 43 | inhibition (INH) [13]: 87%; inhibition (INH) [14]: 37%; IC50 [15]: 5170 nM; inhibition at 10 µM (UGT1A1): 76.1%; IC50 [17]: 37 nM; IC50 [18]: 55 nM; IC50 (Adenosine receptor A3): 12 nM
3 | C[C@@H](Nc1nc(N[C@H](C)C(F)(F)F)nc(C2=C(F)[C@@H](O)CCC2)n1)C(F)(F)F |  | 4950 | 2 | 15800 | 100 | 134 | 1.16 | 14.1 | 42 | remaining at 0.5 h, 1 µM [19]: 92.7%; remaining at 0.5 h, 1 µM [20]: 86.2%; AUC(0-t) at 8 h [21]: 14800 ng·h/mL; Papp A→B at 1 h, 10 µM [22]: 46.8 ×10⁻⁶ cm/s; Papp B→A at 1 h, 10 µM [23]: 25.9 ×10⁻⁶ cm/s
4 | C[C@@H](Nc1nc(N[C@H](C)C(F)(F)F)nc(-c2cccc(Cl)n2)n1)C(F)(F)F [VORASIDENIB] |  |  |  |  |  |  |  |  |  | Kp at 24 h [24]: 1.2; Kp at 16 h [25]: 1.4
